US7785611B2, “Parenteral vaccine formulations and uses thereof” (ALK-Abello A/S, priority 2000, dated 2010)

Experiments:
[1] = tested on: TT-specific antibodies of the IgG class; parameters: species or system BALB/Ca mice; settings: mouse, in vivo, sc
Experimental: (§1) Tetanus toxoid (TT) containing 3.0 mg protein/ml, (obtained from Statens Serum Institut, DK-2300 Copenhagen S, Denmark).
(§2) Prepared from Mg(OH)2 gel (Reheis, USA). • Magnesium carbonate hydroxide pentahydrate, (MgCO3)4Mg(OH)25H2O, 0.05 M Mg^2+. […] Preparation of the Vaccine Formulations: […]
(§3) TT was dissolved or diluted to a concentration 10 times that of the concentration in the final vaccine formulation. The adjuvant was dissolved or diluted to a concentration five times that of the concentration in the final vaccine formulation, with regard to the cation. 1 volume TT solution was slowly mixed with 2 volumes adjuvant, and left stirring over night at 4° C. The following day 7 volumes Coca 0.0 buffer (0.25% sodium hydrogen carbonate and 0.5% sodium chloride) was slowly added. The adjuvant free vaccine was prepared as above, with the modification that the adjuvant was substituted with Coca 0.0 buffer. […]
(§4) Blood samples were drawn from the retro orbital vein every 7 days, starting on day 0. Serum was separated from the blood sample, and stored at −20° C., until analysed.
(§5) Serum samples were analysed for the presence of TT-specific immune response by means of a direct enzyme linked immunosorbent assay (ELISA), measuring TT-specific antibodies of the IgG class. […]
(§6) Bound antibodies were detected by serial incubations of the plate with a biotinylated, polyclonal antiserum to mouse IgG (obtained from Jackson Laboratories, Bar Harbour, Me., USA) followed by a streptavidine-horseradish peroxidase conjugate (obtained from DAKO A/S, Glostrup, Denmark). The plates were developed for 20 minutes with 100 μl readymade TMB substrate (Kem-En-Tech, Denmark) per well, and the reaction as stopped with an equal volume of 1M H2SO4.
(§7) The developed colour reaction was measured as absorption at 450 nm. […]
(§8) The strength of the TT-specific antibody response in each serum sample was measured as an arbitrary titre, determined as the serum dilution giving an absorption signal equal to 50% of that obtained with a 3000 fold dilution of the TT-specific monoclonal antibody. […]

[2] = magnesium hydroxide alone; cited from earlier work
[3] = current use as antacid, laxative, topical or cosmetic; cited from earlier work
[4] = tested on: TT-specific antibodies of the IgG class; parameters: species or system BALB/Ca mice; settings: mouse, in vivo
Experimental: as §1, §2, §3, §4, §5, §6, §7, §8

Row | Molecule | potency at inducing TT-specific antibodies compared with vaccine formulation containing Al(OH)3 [1] | adsorbent activity [2] | Dose (recommended maximum dose) [3] | onset of specific immune response compared with Al(OH)3 formulation [4]
1 | [Mg+2].[OH-].[OH-] [magnesium hydroxide, Magnesium hydroxide] | more potent | low | 0.5 g per kg bodyweight | earlier onset
2 | Titanium dioxide | more potent |  | 1.0 g per kg bodyweight | earlier onset
3 | Magnesium carbonate hydroxide pentahydrate [magnesium carbonate pentahydrate] | more potent |  | 0.5 g per kg bodyweight | earlier onset
